Assay results reported in US8895561B2, “Compounds and methods for treating candidiasis and aspergillus infections” (Cellceutix Corporation, priority 2012, dated 2014).
Where two headings read alike, the source gives them in different places.

What was measured:
[1] = test system: C. albicans (GDH2346) hyphae; assay: Activity against hyphae, Live-Dead stain fluorescence microscopy; type: cell-based; conditions: 8 μg/mL, 15 to 60 minutes
Protocol: C. albicans (GDH2346) was grown in 10% FCS for 3 days to achieve hyphae. Hyphae were treated with Compound 100 (8 μg/mL) for 0 minutes (see, FIG. 2A), 15 minutes (see, FIG. 2B), 30 minutes (see, FIG. 2C), or 60 minutes (see, FIG. 2D). Cultures were stained with FungaLight Live-Dead stain (InVitrogen) and observed under fluorescence microscopy (100× magnification).

[2] = test system: C. albicans (clinical isolate GDH2346); assay: Mouse model of oral candidiasis; type: in vivo, mice
Protocol: To examine the activity of Compound 100 in vivo, an oral model of Candida infection was established in C57B1/6 mice. Animals were first treated for 5 days with oral tetracycline to reduce normal oral flora. An infection was initiated in the mice by inoculating a 50 μL suspension of C. albicans onto lightly scored tongues. This led to colonization of the tongues by days 2 to 4 after inoculation as measured by histological analysis and by recovery of viable colonies upon homogenization. Topical treatment of the infections on day 3 with a single 50 μL dose of a 1 mg/mL compound solution in a neutral hydrogel was sufficient to reduce the total colony counts by greater than 10-fold, equivalent to a similar treatment with an equivalent concentration of Nystatin suspension. […] 8-week old male mBD-1(−/−) mice on a C57B1/6 background were pre-treated for 5 days with 2.5 mg/mL oral tetracycline to reduce normal oral flora (n=5 per group; n=4 for nystatin group). Day 0: infection initiated by oral inoculation of a 50 μL suspension of C. albicans (clinical isolate GDH2346 at 5×10^7 cfu/mL) onto a cotton ball after lightly scoring the tongues. Day 3: Single topical administration of test agent (10 mg/mL) applied in 0.05 mL hydrogel. Tissue was harvested 24 hours post-treatment, homogenized, and quantitated by serial dilution and plating.

C. albicans GDH2346 [3] = assay: Membrane permeabilization, PI staining and flow cytometry; type: cell-based; conditions: 32 μg/mL, 5-minute treatment
Protocol: (A) C. albicans GDH2346 was treated with Compound 100 at the concentrations indicated ([…]) for 30 minutes, followed by staining with PI and quantification by flow cytometry. Ethanol treatment was used to establish 100% uptake. (B) Cells were treated with Compound 100 at 32 μg/mL for the times indicated. To determine whether the compounds act at the membrane, like many host defense proteins, or intracellularly like histatins, the ability of Compound 100 to cause membrane permeability was assessed. Dose-dependent membrane permeabilization of Candida, as shown by cellular accumulation of PI, was evident within 30 minutes at 8 to 32 μg/mL Compound 100 concentrations (see FIG. 3A). Influx was rapid, where >75% of cells were permeabilized after a 5-minute treatment with Compound 100 at 32 μg/mL (see FIG. 3B).

C. albicans GDH2346 [4] = assay: Cellular efflux, ATP release by luciferase assay; type: cell-based
Protocol: (A) C. albicans GDH2346 was treated with either Compound 100 or histatin 5 for 30 minutes, followed by the separation of the extracellular medium and the cells. Intracellular and extracellular ATP levels were quantified by luciferase assay and measurement in a luminometer, relative to a standard control. Treatment 1=no treatment; Treatment 2=16 μg/mL Compound 100; Treatment 3=32 μg/mL Compound 100; and Treatment 4=Histatin 5 (1 mg/mL). (B) Time dependent release of ATP of cells treated with Compound 100 at 32 μg/mL. (C) Dose response of cells treated for 30 minutes, followed by quantification of extracellular ATP.

C. albicans = assay: Mouse Candida sepsis model, kidney burden; type: in vivo; conditions: neutropenic mice, IV 1 hour after infection, kidneys at 24 hours
Protocol: Mice were made neutropenic with i.p. injections of cyclophosphamide (150 mg/kg in 10 mL/kg) at 4 and 1 day before inoculation. Each animal was then inoculated by injecting 0.1 mL of inoculum of C. albicans in a tail vein. The standard was administered orally and the test compounds by IV 1 hour after infection. The kidneys were collected from four mice in Group 1 at 1 hour after infection and from the remaining mice in the study at 24 hours after infection. Kidneys were combined in a sterile tube. An aliquot of sterile PBS were added to each tube and the contents homogenized with a tissue homogenizer. Serial dilutions of the tissue homogenates were conducted, 0.1 mL aliquots were spread on SDA plates and the plates incubated at 35° C. overnight. The CFU/kidneys were determined from colony counts. One-way ANOVA with Bonferroni Multiple Comparisons Test was performed using GraphPad InStat version 3.00 for Windows 95, GraphPad Software, San Diego Calif. USA.

[5] = Cytotoxicity, MTS viability assay; type: cell-based, human; conditions: Table 6
Method in brief: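 Cytotoxicity in mouse 3T3 fibroblasts and human HepG2 liver cells measured by MTS viability assay. Values reported as EC50.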

NCCSc1cc(SCCN)c(C(F)(F)F)cc1NC(=O)c1cc(C(=O)Nc2cc(C(F)(F)F)c(SCCN)cc2SCCN)ncn1 [Compound 100]
death of hyphal cultures [1]: rapidly caused death of hyphal cultures at low concentrations
reduction of total colony counts ([2]; single 50 μL dose of 1 mg/mL solution in neutral hydrogel, day 3, C57B1/6 mice): greater than 10 fold
efficacy relative to Nystatin ([2]; single topical dose 10 mg/mL in 0.05 mL hydrogel on day 3, tongue harvested 24 hours post-treatment): 50 fold
effect on infected tongue burden ([2]; single topical dose 10 mg/mL in hydrogel): nearly sterilized the infected tongue
cells permeabilized (PI uptake) (C. albicans GDH2346 [3]): > 75%
time to significant extracellular ATP accumulation (C. albicans GDH2346 [4]; 32 μg/mL): ≤ 20 min
ATP efflux (intracellular vs extracellular ATP) (C. albicans GDH2346 [4]; 32 μg/mL, 30 minutes): almost all of the ATP from the cell was extracellular
concentration with detectable extracellular ATP levels (C. albicans GDH2346 [4]; 30 minutes of exposure): 16 µg/mL

NCCCOc1cc(OCCCN)cc(-c2ccc3c(c2)c2cc(-c4cc(OCCCN)cc(OCCCN)c4)ccc2n3CCCN)c1 [Compound 135]
reductions in tissue burden from treatment onset (C. albicans): ≥ 1.5 log10

N=C(N)N1CCN(c2ccc(-c3cc(-c4ccc(N5CCN(C(=N)N)CC5)cc4)ncn3)cc2)CC1 [Compound 136]
EC50 ([5]; human, HepG2 cells (transformed liver), read-out: Cytotoxicity EC50 Human HepG2): 453 µM
EC50 ([5]; mouse, 3T3 fibroblasts, read-out: Cytotoxicity EC50 Mouse 3T3): 311 µM
